The compounds below were run against T1, human kinase Mps-1 (Homo sapiens, UniProt P33981) (assay: Mps-1 kinase assay (TR-FRET)). Details: N-terminally GST-tagged human full length recombinant Mps-1; 10 μM ATP; 1 μM peptide substrate; 15 min pre-incubation; 60 min at 22° C.
T1 construct: N-terminally GST-tagged human full length recombinant Mps-1 kinase; GST (N); purchased Invitrogen, Karslruhe, Germany PV4071
T1 sequence (P33981 1-857): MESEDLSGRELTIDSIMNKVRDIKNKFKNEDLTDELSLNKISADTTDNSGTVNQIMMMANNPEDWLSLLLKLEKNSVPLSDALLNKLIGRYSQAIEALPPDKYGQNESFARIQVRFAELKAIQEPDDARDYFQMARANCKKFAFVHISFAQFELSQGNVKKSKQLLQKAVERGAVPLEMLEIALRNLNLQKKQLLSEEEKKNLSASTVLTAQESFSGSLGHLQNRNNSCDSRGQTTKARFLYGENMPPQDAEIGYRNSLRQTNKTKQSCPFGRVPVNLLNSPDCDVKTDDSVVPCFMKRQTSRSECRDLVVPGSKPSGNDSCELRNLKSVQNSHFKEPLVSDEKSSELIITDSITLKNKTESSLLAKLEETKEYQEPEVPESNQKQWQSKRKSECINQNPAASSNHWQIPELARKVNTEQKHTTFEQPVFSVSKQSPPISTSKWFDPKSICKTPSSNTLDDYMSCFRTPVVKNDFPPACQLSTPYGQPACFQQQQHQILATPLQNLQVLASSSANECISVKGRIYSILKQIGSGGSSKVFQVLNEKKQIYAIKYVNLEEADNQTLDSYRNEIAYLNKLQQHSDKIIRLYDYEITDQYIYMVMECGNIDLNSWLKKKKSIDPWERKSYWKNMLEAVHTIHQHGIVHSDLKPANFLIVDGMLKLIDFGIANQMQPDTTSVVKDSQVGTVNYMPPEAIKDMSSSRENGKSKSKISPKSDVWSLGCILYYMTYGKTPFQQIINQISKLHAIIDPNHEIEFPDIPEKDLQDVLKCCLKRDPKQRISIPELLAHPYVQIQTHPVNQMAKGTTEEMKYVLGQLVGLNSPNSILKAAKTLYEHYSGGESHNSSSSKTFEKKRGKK
Format: biochemical
Procedure, shortened: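 TR-FRET read-out: after 1 h binding at 22° C, Eu-labelled anti-phospho-Ser/Thr antibody transfers to SA-XLent on the phosphorylated biotinylated peptide. The enzyme is GST-tagged full-length human Mps-1, typically about 1 nM final, in the linear range.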

IC50 [nM]	Structure (SMILES)
5.4	CC(C)(O)CNc1nc(-c2ccc(F)cc2)cn2c(-c3ccc(C(=O)NC4CC4)c(F)c3)cnc12 [Example 1-115, N-cyclopropyl-2-fluoro-4-{6-(4-fluorophenyl)-8-[(2-hydroxy-2-methyl-propyl)amino]imidazo [1,2-a]pyrazin-3-yl} benzamide]
34.7	CC(C)(O)CNc1nc(-c2ccccc2CO)cn2c(-c3ccc(C(=O)NC4CC4)c(F)c3)cnc12 [Example 1-116, N-cyclopropyl-2-fluoro-4-{6-[2-(hydroxymethyl)phenyl]-8-[(2-hydroxy-2-methylpropyl)amino]imidazo[1,2-a]pyrazin-3-yl}benzamide]
28.8	CN(C)c1ccc(-c2cn3c(-c4ccc(C(=O)NC5CC5)c(F)c4)cnc3c(NCC3CCCO3)n2)cc1 (stereo not drawn) [Example 1-117, N-cyclopropyl-4-{6-[4-(dimethylamino)phenyl]-8-[(tetrahydrofuran-2-ylmethyl)amino]imidazo [1,2-a]pyrazin-3-yl}-2-fluorobenzamide]
20.1	O=C(NC1CC1)c1ccc(-c2cnc3c(NCC4CCCO4)nc(-c4ccccc4CO)cn23)cc1F (stereo not drawn) [Example 1-118, N-cyclopropyl-2-fluoro-4-{6-[2-(hydroxymethyl)phenyl]-8-[(tetrahydro-furan-2-ylmethyl)amino]imidazo[1,2-a]pyrazin-3-yl}benzamide]
2.5	Cn1nccc1CNc1nc(-c2ccc(F)cc2)cn2c(-c3ccc(C(=O)NC4CC4)c(F)c3)cnc12 [Example 1-119, N-cyclopropyl-2-fluoro-4-[6-(4-fluorophenyl)-8-{[(1-methyl-1H-pyrazol-5-yl)methyl]amino}imidazo[1,2-a]pyrazin-3-yl]benzamide]
16.8	CN(C)c1ccc(-c2cn3c(-c4ccc(C(=O)NC5CC5)c(F)c4)cnc3c(NCc3ccnn3C)n2)cc1 [Example 1-120, N-cyclopropyl-4-(6-[4-(dimethylamino)phenyl]-8-{[(1-methyl-1H-pyrazol-5-yl)methyl]amino}imidazo[1,2-a]pyrazin-3-yl)-2-fluorobenzamide]
11.1	Cn1nccc1CNc1nc(-c2ccccc2CO)cn2c(-c3ccc(C(=O)NC4CC4)c(F)c3)cnc12 [Example 1-121, N-cyclopropyl-2-fluoro-4-(6-[2-(hydroxymethyl)phenyl]-8-{[(1-methyl-1H-pyrazol-5-yl)methyl]amino}imidazo[1,2-a]pyrazin-3-yl)benzamide]
11.9	Cc1cc(-c2cnc3c(NCCC(F)(F)F)nc(-c4cccc(CO)c4)cn23)ccc1C(=O)NC1CC1 [Example 1-122, N-cyclopropyl-4-{6-[3-(hydroxymethyl)phenyl]-8-[(3,3,3-trifluoropropyl)amino]imidazo[1,2-a]pyrazin-3-yl}-2-methyl-benzamide]
1.2	Cc1cc(-c2cnc3c(NCCC(F)(F)F)nc(-c4ccc(CO)cc4)cn23)ccc1C(=O)NC1CC1 [Example 1-123, N-cyclopropyl-4-{6-[4-(hydroxymethyl)phenyl]-8-[(3,3,3-trifluoropropyl)amino]imidazo[1,2-a]pyrazin-3-yl}-2-methyl-benzamide]
1.1	Cc1cc(-c2cnc3c(NCCC(F)(F)F)nc(-c4ccc(F)c(CO)c4)cn23)ccc1C(=O)NC1CC1 [Example 1-124, N-cyclopropyl-4-{6-[4-fluoro-3-(hydroxymethyl)phenyl]-8-[(3,3,3-tri-fluoropropyl)amino]imidazo[1,2-a]pyrazin-3-yl}-2-methylbenzamide]
1.1	CC(C)(O)CNc1nc(-c2ccccc2)cn2c(-c3ccc(C(=O)NC4CC4)cc3)cnc12 [Example 1-125, N-cyclopropyl-4-{8-[(2-hydroxy-2-methylpropyl)amino]-6-phenylimidazo[1,2-a]pyrazin-3-yl}benzamide]
4.4	CC(C)CNc1nc(-c2ccc(S(=O)(=O)NC3CC3)cc2)cn2c(-c3ccc(C(=O)NC4CC4)cc3)cnc12 [Example 1-126, N-cyclopropyl-4-{6-[4-(cyclopropylsulfamoyl)phenyl]-8-[(2-methylpropyl)amino]imidazo[1,2-a]pyrazin-3-yl}benzamide]
32.2	CC(C)CNc1nc(-c2ccc(SC3CC3)cc2)cn2c(-c3ccc(C(=O)NC4CC4)cc3)cnc12 [Example 1-127, N-cyclopropyl-4-{6-[4-(cyclopropylsulfanyl)phenyl]-8-[(2-methylpropyl)amino]imidazo[1,2-a]pyrazin-3-yl} benzamide]
1.2	O=C(NC1CC1)c1ccc(-c2cnc3c(NCC4CCCCC4)nc(-c4cccc5ncccc45)cn23)cc1 [Example 1-128, 4-{8-[(cyclohexylmethyl)amino]-6-(quinolin-5-yl)imidazo[1,2-a]pyrazin-3-yl}-N-cyclopropylbenzamide]
1.9	CC(C)CNc1nc(-c2cccc(S(N)(=O)=O)c2)cn2c(-c3ccc(C(=O)NC4CC4)cc3)cnc12 [Example 1-129, N-cyclopropyl-4-[8-(isobutylamino)-6-(3-sulfamoylphenyl)imidazo [1,2-a]pyrazin-3-yl] benzamide]
6.7	CC(C)CNc1nc(-c2cccc(S(=O)(=O)N3CCOCC3)c2)cn2c(-c3ccc(C(=O)NC4CC4)cc3)cnc12 [Example 1-130, N-cyclopropyl-4-{8-(isobutylamino)-6-[3-(morpholin-4-ylsulfonyl)phenyl]imidazo[1,2-a]pyrazin-3-yl}benzamide]
1.6	CC(C)(O)CNc1nc(-c2ccc(F)cc2)cn2c(-c3ccc(C(=O)NC4CC4)cc3)cnc12 [Example 1-131, N-cyclopropyl-4-{6-(4-fluorophenyl)-8-[(2-hydroxy-2-methylpropyl)amino]imidazo[1,2-a]pyrazin-3-yl}benzamide]
10.3	CC(C)(O)CNc1nc(-c2ccccc2CO)cn2c(-c3ccc(C(=O)NC4CC4)cc3)cnc12 [Example 1-132, N-cyclopropyl-4-{6-[2-(hydroxymethyl)phenyl]-8-[(2-hydroxy-2-methylpropyl)amino]imidazo[1,2-a]pyrazin-3-yl}benzamide]
6.1	CC(C)(O)CNc1nc(-c2cc(F)c(F)cc2F)cn2c(-c3ccc(C(=O)NC4CC4)cc3)cnc12 [Example 1-133, N-cyclopropyl-4-{8-[(2-hydroxy-2-methylpropyl)amino]-6-(2,4,5-trifluoro-phenyl)imidazo[1,2-a]pyrazin-3-yl}benzamide]
31.5	CC(C)(O)CNc1nc(-c2cc(F)c(F)c(F)c2)cn2c(-c3ccc(C(=O)NC4CC4)cc3)cnc12 [Example 1-134, N-cyclopropyl-4-{8-[(2-hydroxy-2-methyl-propyl)amino]-6-(3,4,5-trifluorophenyl)imidazo[1,2-a]pyrazin-3-yl} benzamide]
8.4	Cc1cc(-c2cn3c(-c4ccc(C(=O)NC5CC5)cc4)cnc3c(NCC(C)(C)O)n2)ccc1F [Example 1-135, N-cyclopropyl-4-{6-(4-fluoro-3-methylphenyl)-8-[(2-hydroxy-2-methylpropyl)amino]imidazo [1,2-a]pyrazin-3-yl} benzamide]
7.9	Cc1cc(-c2cnc3c(NCC(C)(C)O)nc(-c4ccc(F)cc4)cn23)ccc1C(=O)NC1CC1 [Example 1-136, N-cyclopropyl-4-{6-(4-fluorophenyl)-8-[(2-hydroxy-2-methylpropyl)amino]imidazo[1,2-a]pyrazin-3-yl}-2-methylbenzamide]
5.1	Cc1cc(-c2cnc3c(NCC(C)(C)O)nc(-c4ccccc4)cn23)ccc1C(=O)NC1CC1 [Example 1-137, N-cyclopropyl-4-{8-[(2-hydroxy-2-methylpropyl)amino]-6-phenylimidazo[1,2-a]pyrazin-3-yl}-2-methylbenzamide]
1.9	Cc1cc(-c2cnc3c(NCCC(F)(F)F)nc(-c4ccccc4CO)cn23)ccc1C(=O)NC1CC1 [Example 1-138, N-cyclopropyl-4-{6-[2-(hydroxymethyl)phenyl]-8-[(3,3,3-trifluoro-propyl)amino]imidazo[1,2-a]pyrazin-3-yl}-2-methylbenzamide]
2.7	O=C(NC1CC1)c1ccc(-c2cnc3c(NCCO)nc(-c4ccccc4)cn23)cc1 [Example 2-1, N-cyclopropyl-4-{8-[(2-hydroxyethyl)amino]-6-phenylimidazo[1,2-a]pyrazin-3-yl}benzamide]
47.7	CCN(CC)CCNc1nc(-c2ccccc2)cn2c(-c3ccc(C(=O)NC4CC4)cc3)cnc12 [Example 2-2, N-cyclopropyl-4-(8-{[2-(diethylamino)ethyl]amino}-6-phenylimidazo[1,2-a]pyrazin-3-yl)benzamide]
6.9	O=C(NC1CC1)c1ccc(-c2cnc3c(NCCCN4CCOCC4)nc(-c4ccccc4)cn23)cc1 [Example 2-3, N-cyclopropyl-4-(8-{[3-(morpholin-4-yl)propyl]amino}-6-phenylimidazo[1,2-a]pyrazin-3-yl)benzamide]
